Data as given in patent US7923471B2, “Method of treating dry eye disorders and uveitis” (Alcon, Inc., priority 2004, dated 2011).
Marks after values point to notes of the source that are not given here.

Legend:
[1] = test system: neutrophils; settings: compared with lipoxin A4; cited from earlier work
[2] = test system: rabbit model of dry eye; assay: Rabbit model of dry eye (lacrimal gland ConA injection followed by desiccation): tear breakup time (TBUT); format: in vivo, New Zealand white rabbits; settings: ConA-injected rabbit eyes, baseline = saline-injected, vehicle-treated eyes
Protocol: A second group of animals was evaluated for tear film quality by measuring each animal's tear breakup time (TBUT). Using the same experimental protocol as above for inducing rabbit ocular damage, TBUT was determined daily by instilling 5 μL of sodium fluorescein into the cul de sac and manually blinking the lids to distribute the fluroescein within the tear film. Under slit lamp observation, the eye was held open and the time whereby one or more black spots or streaks appeared in the precorneal tear film was recorded. The rabbits were euthanized 3 days following ConA injection. Larger TBUT values indicate better tear film quality and more protection from ocular damage. TBUT data is expressed as % of baseline, with baseline TBUT being that observed for saline-injected, vehicle-treated eyes.
(§1) The % inhibition of corneal staining and TBUT data are presented below in table 1, with 15S-HETE (Biomol Research Laboratories, Plymouth Meeting, Pa.) treatment of ConA-injected eyes used as a positive control.

[3] = test system: rabbit model of dry eye; assay: Rabbit model of dry eye (lacrimal gland ConA injection followed by desiccation): corneal staining with methylene blue; format: in vivo, New Zealand white rabbits; settings: 50 μl topical twice a day, ConA-injected rabbit eyes, 72 h desiccation
Protocol: Compound 1 was evaluated in a rabbit model of dry eye. New Zealand white rabbits (approximately 2.5 kg; obtained from Myrtle's Rabbitry, Thompson Station, Tenn.) were randomized and dosed topically twice a day with either 50 μl of compound 1 formulated in 0.064%/BSS® at concentrations of 1, 10, or 100 μM, or with 0.064%/BSS® vehicle. After 24 h the rabbits were anesthetized by subcutaneous administration of ketamine hydrochloride (30 mg/kg) and xylazine (6 mg/kg) and each rabbit received bilateral injections of Conconavilin A (ConA) (300 μg/30 μl) or saline (30 μl). Desiccation was initiated one day following lacrimal gland injection by placing conscious animals in an environmental chamber (20-30% humidity, […]). Following 72 hours of exposure to environment, the animals were assessed for corneal staining upon exposure of the cornea to the dye methylene blue; less staining indicates less damage to the cornea. The rabbits were anesthetized by subcutaneous administration of ketamine hydrochloride (30 mg/kg) and xylazine (6 mg/kg). Sutures were placed in each upper and lower eyelid and lifted to form a corneal/conjunctival cup. Methylene blue dye (1 mL, 1% in distilled water) was added to the cup for five minutes and the excess removed by washing with 200 mL of BSS®. The contralateral eye was then stained using the same procedure. Rabbits were euthanized immediately following the staining procedure and the eyes were excised. The corneas were isolated and a 9.5 mm punch of the cornea was placed overnight in 2 mL of acetone/saturated sodium sulfate (7:3 v/v). The concentration of the extracted dye was determined spectrophotometrically by measuring its absorbance at λ=660 nanometers (A660). Percent inhibition was calculated as {1−[(A660test item−A660Normal)/(A660BSS−A660Normal)]}×100, where A660test item is the absorbance of dye from ConA-injected eyes dosed with compound 1, A660Normal is the absorbance of dye from saline-injected eyes, and A660BSS is the absorbance of dye in ConA-injected eyes dosed with 0.064% ethanol/BSS® solution vehicle. A higher percent inhibition of staining indicates more protection of the cornea from damage.
as §1

[4] = test system: endotoxin-induced uveitis in rats; assay: Endotoxin-induced uveitis in rats: ocular neutrophil (PMN) content by myeloperoxidase activity; format: in vivo, female Lewis rats; settings: 24 h post endotoxin; for Myeloperoxidase (x ± standard deviation): 5 μL topical ocular at endotoxin injection and 4 h later, vehicle 164 ± 46
Protocol: Compound 1 was evaluated for its ability to suppress neutrophil influx into the rat eye in a model of endotoxin-induced uveitis. The compound was prepared at concentrations of 0.01%, 0.1%, 1.0% w/v in an ophthalmic suspension vehicle, and dexamethasone (Sigma-Aldrich Company, St. Louis, Mo.) formulated in the same vehicle served as reference compound. Uveitis was induced by subplantar injection of endotoxin (200 μg in 0.1 mL saline) in the right hind paw of female Lewis rats (5/group). Test compound of vehicle (5 μL) was administered topically to each eye of the experimental animals at the time of endoxtoxin injection and again 4 hours later. Twenty four hours post endotoxin injection, animals were sacrificed by CO2 inhalation, and total ocular neutrophil (PMN) content was assessed indirectly by determination of myeloperoxidase activity. Ocular PMN content in each group was then compared with that observed in the vehicle-treated group using Dunnet's t-test.

SMILES | inhibition of LTB4-induced chemotaxis of neutrophils [1] | TBUT, % of Baseline, ±S.D. ([2]; 1 μM topical twice a day) | % Inhibition of Corneal Staining, ±S.D. ([3]; 1 μM) | % inhibition (myeloperoxidase / ocular PMN content vs vehicle) ([4]; 0.1 % w/v topical ocular) | Myeloperoxidase (x ± standard deviation) ([4]; 0.1 % w/v) [μM/min/100 mg] | also measured
CCCCC[C@H](O)[C@H](O)CO [Compound 2] | as potently as lipoxin A4 |  |  |  |  | 
COC(=O)CCC[C@H](O)[C@H](O)CO [Compound 1] | as potently as lipoxin A4 | 67 ± 17^b % of Baseline | 75 ± 12^b % | 2% | 161 ± 37 | TBUT, % of Baseline, ±S.D. ([2]; 10 μM topical twice a day): 45 ± 17^b % of Baseline; TBUT, % of Baseline, ±S.D. ([2]; 100 μM topical twice a day): 51 ± 18^b % of Baseline; % Inhibition of Corneal Staining, ±S.D. ([3]; 10 μM): 54 ± 9^b,c %; % Inhibition of Corneal Staining, ±S.D. ([3]; 100 μM): 38 ± 34^b,c %; % inhibition (myeloperoxidase / ocular PMN content vs vehicle) ([4]; 0.01 % w/v topical ocular): 13%; Myeloperoxidase (x ± standard deviation) ([4]; 0.01 % w/v): 143 ± 64 μM/min/100 mg; % inhibition (myeloperoxidase / ocular PMN content vs vehicle) ([4]; 1.0 % w/v topical ocular): 41* %; Myeloperoxidase (x ± standard deviation) ([4]; 1.0 % w/v): 97 ± 35 μM/min/100 mg
CCCCC[C@H](O)/C=C/C=C\C/C=C\C/C=C\CCCC(=O)O [Compound 15S-HETE, 15S-HETE, reference compound] |  | 54 ± 21^b % of Baseline | 77 ± 18^b % |  |  | 
C[C@@H]1C[C@H]2[C@@H]3CCC4=CC(=O)C=C[C@]4(C)[C@@]3(F)[C@@H](O)C[C@]2(C)[C@@]1(O)C(=O)CO [Dexamethasone, dexamethasone, reference compound] |  |  |  | 91* % | 15 ± 7 | 
